pEC50: −log10 of the molar value.
Experiments:
HIV-1 = test: Anti-HIV-1 assay in activated primary human PBM cells; type: cell-based, human immunodeficiency virus type 1; conditions: for pEC50: read-out: Anti-HIV-1 activity in human PBM cells EC50
[1] = Cytotoxic assay, primary human PBM cells; type: cell-based; conditions: human, primary human PBM cells
primary human PBM cells = test: Cytotoxic assay, primary human PBM cells; type: cell-based; conditions: primary human PBM cells (lymphocytes)
[2] = Cytotoxic assay, VERO cells; type: cell-based; conditions: African green monkey
VERO cells = test: Cytotoxic assay, VERO cells; type: cell-based
in vitro = conditions: human, CEM cells

Structure (SMILES) | IC50 at 5 day (in vitro) | pEC50 (HIV-1) | IC50 at 5 day [1] | toxicity in primary human PBM cells (in words) (primary human PBM cells) | IC50 at 5 day [2] | toxicity in VERO cells (in words) (VERO cells) | toxicity in CEM cells (in words) (CEM cells) | anti-HIV-1 activity (in words) (HIV-1)
CC(=NNC(=O)CN1c2c(-c3ccccc3)n[nH]c2-c2ccccc2S1(=O)=O)c1cccs1 [5a, 2-(5,5-Dioxido-3-phenylbenzo[e]pyrazolo[4,3-c][1,2]thiazin-4(1H)-yl)-N′-(1-(thiophen-2-yl)ethylidene)acetohydrazide] | 23.3 µM | 4.95 | 88 µM | no toxicity | 77.2 µM | no toxicity | – | –
CC(=NNC(=O)CN1c2c(-c3ccccc3)n[nH]c2-c2ccccc2S1(=O)=O)c1sccc1C [5b, 2-(5,5-Dioxido-3-phenylbenzo[e]pyrazolo[4,3-c][1,2]thiazin-4(1H)-yl)-N′-(1-(3-methylthiophen-2-yl)ethylidene)acetohydrazide] | 13.1 µM | 4.94 | 56.2 µM | – | 75.3 µM | – | – | –
CC(=NNC(=O)CN1c2c(-c3ccccc3)n[nH]c2-c2ccccc2S1(=O)=O)c1cc(C)sc1C [5d, N′-(1-(2,5-dimethylthiophen-3-yl)ethylidene)-2-(5,5-dioxido-3-phenylbenzo[e]pyrazolo[4,3-c][1,2]thiazin-4(1H)-yl)acetohydrazide] | 17.6 µM | – | 36.5 µM | – | 44.4 µM | – | – | –
CC(=NNC(=O)CN1c2c(-c3ccccc3)n[nH]c2-c2ccccc2S1(=O)=O)c1sc(N)nc1C [5h, N′-(1-(2-amino-4-methylthiazol-5-yl)ethylidene)-2-(5,5-dioxido-3-phenylbenzo[e]pyrazolo[4,3-c][1,2]thiazin-4(1H)-yl)acetohydrazide] | > 100 µM | – | > 100 µM | no toxicity | > 100 µM | no toxicity | no toxicity | –
CC(=NNC(=O)CN1c2c(-c3ccccc3)n[nH]c2-c2ccccc2S1(=O)=O)c1cc(Cl)sc1Cl [5i, N′-(1-(2,5-dichlorothiophen-3-yl)ethylidene)-2-(5,5-dioxido-3-phenylbenzo[e]pyrazolo[4,3-c][1,2]thiazin-4(1H)-yl)acetohydrazide] | 14.4 µM | – | 12.2 µM | toxic | 38.8 µM | toxic | toxic | –
CC(=NNC(=O)CN1c2c(-c3ccccc3)n[nH]c2-c2ccccc2S1(=O)=O)c1cc(C)cs1 [5j, 2-(5,5-Dioxido-3-phenylbenzo[e]pyrazolo[4,3-c][1,2]thiazin-4(1H)-yl)-N′-(1-(4-methylthiophen-2-yl)ethylidene)acetohydrazide] | 18.3 µM | 4.88 | > 100 µM | – | 6 µM | – | – | –
CC(=NNC(=O)CN1c2c(-c3ccccc3)n[nH]c2-c2ccccc2S1(=O)=O)c1cc2ccccc2oc1=O [5k, 2-(5,5-Dioxido-3-phenylbenzo[e]pyrazolo[4,3-c][1,2]thiazin-4(1H)-yl)-N′-(1-(2-oxo-2H-chromen-3-yl)ethylidene)acetohydrazide] | 27.8 µM | – | 82.7 µM | non-toxic | > 100 µM | non-toxic | – | –
CC(=NNC(=O)CN1c2c(-c3ccccc3)n[nH]c2-c2ccccc2S1(=O)=O)c1ccc2ccccc2c1 [5l, 2-(5,5-Dioxido-3-phenylbenzo[e]pyrazolo[4,3-c][1,2]thiazin-4(1H)-yl)-N′-(1-(naphthalen-2-yl)ethylidene)acetohydrazide] | 24.2 µM | – | 12.2 µM | – | < 1 µM | – | – | –
CC(=NNC(=O)CN1c2c(-c3ccccc3)n[nH]c2-c2ccccc2S1(=O)=O)c1cc2ccccc2o1 [5n, N′-(1-(benzofuran-2-yl)ethylidene)-2-(5,5-dioxido-3-phenylbenzo[e]pyrazolo[4,3-c][1,2]thiazin-4(1H)-yl)acetohydrazide] | 22.4 µM | – | > 100 µM | – | 23 µM | – | – | inactive
CC(=NNC(=O)CN1c2c(-c3ccccc3)n[nH]c2-c2ccccc2S1(=O)=O)c1ccc2c(c1)OCCO2 [5q, N′-(1-(2,3-dihydrobenzo[b][1,4]dioxin-6-yl)ethylidene)-2-(5,5-dioxido-3-phenylbenzo[e]pyrazolo[4,3-c][1,2]thiazin-4(1H)-yl)acetohydrazide] | 23.9 µM | – | 67.1 µM | non-toxic | > 100 µM | non-toxic | – | –
CC(=NNC(=O)CN1c2c(-c3ccccc3)n[nH]c2-c2ccccc2S1(=O)=O)c1ccc([N+](=O)[O-])s1 [5r, 2-(5,5-Dioxido-3-phenylbenzo[e]pyrazolo[4,3-c][1,2]thiazin-4(1H)-yl)-N′-(1-(5-nitrothiophen-2-yl)ethylidene)acetohydrazide] | 5 µM | – | 85 µM | – | 43.6 µM | – | – | –
CC(=NNC(=O)CN1c2c(-c3ccccc3)n[nH]c2-c2ccccc2S1(=O)=O)c1ccc(C)o1 [5s, 2-(5,5-Dioxido-3-phenylbenzo[e]pyrazolo[4,3-c][1,2]thiazin-4(1H)-yl)-N′-(1-(5-methylfuran-2-yl)ethylidene)acetohydrazide] | 15.4 µM | – | 53.8 µM | – | > 100 µM | – | – | inactive
CC(=NNC(=O)CN1c2c(-c3ccccc3)n[nH]c2-c2ccccc2S1(=O)=O)c1cc(C)oc1C [5t, N′-(1-(2,5-dimethylfuran-3-yl)ethylidene)-2-(5,5-dioxido-3-phenylbenzo[e]pyrazolo[4,3-c][1,2]thiazin-4(1H)-yl)acetohydrazide] | 9.9 µM | – | 17.3 µM | – | 41.4 µM | – | – | –
CC(=NNC(=O)CN1c2c(-c3ccccc3)n[nH]c2-c2ccccc2S1(=O)=O)c1ccncc1 [5v, 2-(5,5-Dioxido-3-phenylbenzo[e]pyrazolo[4,3-c][1,2]thiazin-4(1H)-yl)-N′-(1-(pyridin-4-yl)ethylidene)acetohydrazide] | 34.5 µM | – | 75.6 µM | – | 84.1 µM | – | – | inactive
O=C(CN1c2c(-c3ccccc3)n[nH]c2-c2ccccc2S1(=O)=O)NN=Cc1cccs1 [5w, 2-(5,5-Dioxido-3-phenylbenzo[e]pyrazolo[4,3-c][1,2]thiazin-4(1H)-yl)-N′-(thiophen-2-ylmethylene)acetohydrazide] | 13.9 µM | – | 30.6 µM | no toxicity | 41.8 µM | no toxicity | – | –

Second part, led by results:

IC50 at 5 day (in vitro) | Structure (SMILES) | pEC50 (HIV-1) | IC50 at 5 day [1] | toxicity in primary human PBM cells (in words) (primary human PBM cells) | IC50 at 5 day [2] | toxicity in VERO cells (in words) (VERO cells) | toxicity in CEM cells (in words) (CEM cells) | anti-HIV-1 activity (in words) (HIV-1)
10.7 µM | CC(=NNC(=O)CN1c2c(-c3ccccc3)n[nH]c2-c2ccccc2S1(=O)=O)c1ccsc1 [5c, 2-(5,5-Dioxido-3-phenylbenzo[e]pyrazolo[4,3-c][1,2]thiazin-4(1H)-yl)-N′-(1-(thiophen-3-yl)ethylidene)acetohydrazide] | – | 73.2 µM | no toxicity | 78.7 µM | no toxicity | – | –
16.8 µM | CC(=NNC(=O)CN1c2c(-c3ccccc3)n[nH]c2-c2ccccc2S1(=O)=O)c1sccc1Cl [5e, N′-(1-(3-chlorothiophen-2-yl)ethylidene)-2-(5,5-dioxido-3-phenylbenzo[e]pyrazolo[4,3-c][1,2]thiazin-4(1H)-yl)acetohydrazide] | – | 69.1 µM | non-toxic | > 100 µM | non-toxic | – | –
19.6 µM | CC(=NNC(=O)CN1c2c(-c3ccccc3)n[nH]c2-c2ccccc2S1(=O)=O)c1sccc1Br [5f, N′-(1-(3-bromothiophen-2-yl)ethylidene)-2-(5,5-dioxido-3-phenylbenzo[e]pyrazolo[4,3-c][1,2]thiazin-4(1H)-yl)acetohydrazide] | – | 42.8 µM | – | > 100 µM | – | – | –
8.4 µM | CC(=NNC(=O)CN1c2c(-c3ccccc3)n[nH]c2-c2ccccc2S1(=O)=O)c1ccc(Cl)s1 [5g, N′-(1-(5-chlorothiophen-2-yl)ethylidene)-2-(5,5-dioxido-3-phenylbenzo[e]pyrazolo[4,3-c][1,2]thiazin-4(1H)-yl)acetohydrazide] | – | 13.9 µM | – | 57.4 µM | – | – | –
13.8 µM | CC(=NNC(=O)CN1c2c(-c3ccccc3)n[nH]c2-c2ccccc2S1(=O)=O)c1ccc(C)s1 [5m, 2-(5,5-Dioxido-3-phenylbenzo[e]pyrazolo[4,3-c][1,2]thiazin-4(1H)-yl)-N′-(1-(5-methylthiophen-2-yl)ethylidene)acetohydrazide] | – | 62.3 µM | – | 30.6 µM | – | – | –
20 µM | CC(=NNC(=O)CN1c2c(-c3ccccc3)n[nH]c2-c2ccccc2S1(=O)=O)c1ccc[nH]1 [5o, N′-(1-(1H-pyrrol-2-yl)ethylidene)-2-(5,5-dioxido-3-phenylbenzo[e]pyrazolo[4,3-c][1,2]thiazin-4(1H)-yl)acetohydrazide] | – | 41.4 µM | – | 22.3 µM | – | – | –
< 1 µM | CC(=NNC(=O)CN1c2c(-c3ccccc3)n[nH]c2-c2ccccc2S1(=O)=O)c1ccc(Br)s1 [5p, N′-(1-(5-bromothiophen-2-yl)ethylidene)-2-(5,5-dioxido-3-phenylbenzo[e]pyrazolo[4,3-c][1,2]thiazin-4(1H)-yl)acetohydrazide] | – | 10.5 µM | – | 18.1 µM | – | – | –
8.2 µM | CC(=NNC(=O)CN1c2c(-c3ccccc3)n[nH]c2-c2ccccc2S1(=O)=O)c1nccs1 [5u, 2-(5,5-Dioxido-3-phenylbenzo[e]pyrazolo[4,3-c][1,2]thiazin-4(1H)-yl)-N′-(1-(thiazol-2-yl)ethylidene)acetohydrazide] | – | 15.7 µM | – | 43.1 µM | – | – | –
